Values quoted from earlier work, collected in article PMC11954708 (Clinical Pharmacokinetics, 2025).

Legend:
[1] = total body clearance value
[2] = for Positive FE in vivo: Yes/No; for AUC ratio Observed: fed/fasted in vivo

Structure (SMILES)	CL [1]	Positive FE in vivo [2]	AUC ratio Observed [2]	CYP3A4 or UGT substrate? (CYP3A4 or UGT)	CL (po) [1]
NC(=O)N1c2ccccc2C=Cc2ccccc21 [Carbamazepine]	2.7 [50] l/h	Yes	1.12		
COC(=O)[C@H](c1ccccc1Cl)N1CCc2sccc2C1 [Clopidogrel]	84 [52] l/h	Yes			
Cc1cccc(Nc2ccccc2C(=O)O)c1C [Mefenamic acid]		No		No	21.23 (po) [51] l/h

Other lines, results leading:

CL [1]	Positive FE in vivo [2]	AUC ratio Observed [2]	CYP3A4 or UGT substrate? (CYP3A4 or UGT)	CL (po) [1]	Structure (SMILES)
5.28 [51] l/h			No		C[C@H]1O[C@@H](O[C@H]2[C@@H](O)C[C@H](O[C@H]3[C@@H](O)C[C@H](O[C@H]4CC[C@@]5(C)[C@H](CC[C@@H]6[C@@H]5C[C@@H](O)[C@]5(C)[C@@H](C7=CC(=O)OC7)CC[C@]65O)C4)O[C@@H]3C)O[C@@H]2C)C[C@H](O)[C@@H]1O [Digoxin]
	Yes	1.28		9.4 (po) [51] l/h	O=C1Nc2ccc(Cl)cc2[C@@](C#CC2CC2)(C(F)(F)F)O1 [Efavirenz]
	No				CCOC(=O)C1=C(C)NC(C)=C(C(=O)OC)C1c1cccc(Cl)c1Cl (centres unmarked) [Felodipine]
